Test results reported in PMC7078782 (Drug Design, Development and Therapy, 2020).

Assays:
[1] = liver; cited from earlier work
[2] = Stability of QC samples in beagle plasma; type: in vitro ADME; conditions: under the experimental conditions (room temperature, autosampler, freeze-thaw, −20°C)
[3] = Pharmacokinetic study in beagles after intramuscular injection of parecoxib; conditions: beagle, dog, plasma, im, 1.33 mg/kg, after intramuscular injection of 1.33 mg/kg parecoxib, n=6, mean ± SD
Stock solution stability = type: physicochemical; conditions: under the experimental conditions
[4] = cats; cited from earlier work

Row | Compound | Share of elimination by sulfonamide glucose hydroformylation [1] | Stability in beagle plasma (in words) [2] | Tmax ([3]; Tmax, beagle plasma) [h] | half-life ([3]; t1/2, beagle plasma) [h] | Stock solution stability (in words) (Stock solution stability) | t1/2 of conversion to valdecoxib and propionic acid [4]
1 | Cc1onc(-c2ccccc2)c1-c1ccc(S(N)(=O)=O)cc1 [Valdecoxib] | about 20% | stable | ~1.36 | ~2.27 | stabilized | –
2 | CCC(=O)NS(=O)(=O)c1ccc(-c2c(-c3ccccc3)noc2C)cc1 [Parecoxib] | – | stable | – | – | stabilized | about 24 mins
3 | Cc1ccc(-c2cc(C(F)(F)F)nn2-c2ccc(S(N)(=O)=O)cc2)cc1 [IS, Celecoxib] | – | – | – | – | stabilized | –
